Test results reported in patent US8530457B2, “Method for the treatment of lymphangioleiomyomatosis (LAM)” (Fox Chase Cancer Center, priority 2008, dated 2013).
Entries after “also recorded” stand apart in the source; their conditions may differ.

Key:
p42/44 MAPK [1] = experiment: Immunoblot of phosphorylated p42/44 MAPK in ELT3 cells; type: cell-based, rat
Protocol: Prior to the in vitro experiments, cells were maintained in media supplemented with 10%-charcoal-stripped FBS for three days and then serum starved for 24 hours in serum-free and phenol red-free medium. E2 (10 nM, Sigma, St. Louis, Mo.) or PD98059 (50 μM, Cell Signaling Technology, Danvers, Mass.) was added to the cells as indicated.
(§1) Cells were rinsed once in ice-cold PBS and lysed in PTY buffer (50 mM Hepes, pH 7.5, 50 mM NaCl, 5 mM EDTA, 50 mM NaF, 10 mM Na4P2O7, and 1% Triton 100) supplemented with phosphatase inhibitors. Lysates were resolved by SDS-PAGE electrophoresis and transferred onto Immobilon P membranes (Millipore). Cytoplasmic and nuclear fractions were separated using CellLytic Nuclear Extraction Kit (Sigma) before electrophoresis. […] Western blots were developed using horseradish peroxidase-conjugated secondary antibodies and ECL chemiluminescence (Amersham Biosciences).

ELT3-luciferase cells = experiment: Lung colonization of i.v. injected ELT3-luciferase cells, bioluminescent imaging; type: in vivo, mice
Protocol: (§2) All animal work was performed in accordance with a protocol approved by the FCCC Institutional Animal Care and Use Committee. Male CB-17 scid mice, six weeks of age, were purchased from Fox Chase Cancer Center. Female ovariectomized CB17-scid mice, six to eight weeks of age, were purchased from Taconic (Hudson, N.Y.). One week prior to cell injection, 17-beta estradiol or control-placebo pellets (2.5 mg, 90-day release) (Innovative Research America, Sarasota, Fla.) were implanted. For xenograft tumor establishment, subconfluent ELT3 cells were harvested, washed in PBS, and resuspended in 0.2 ml of serum-free medium. Two millions ELT3 cells were injected into both flanks of the mouse subcutaneously. […] Lung metastases were scored from 3-5 five-micron H&E stained sections of each lobe at 40× magnification by observers blinded to the experimental conditions.
One million ELT3 cells were transfected with 3 μg of pCMV-Luc (Invitrogen, Carlsbad, Calif.) using Nucleofection reagent (Amaxa, Gaithersburg, Md.). Cells were selected in G418 for 2 weeks, and G418 resistant clones were isolated and examined for luciferase activity.
Ten minutes prior to imaging, animals were injected with luciferin (Xenogen, Alameda, Calif.) (120 mg/kg, i.p.). Bioluminescent signals were recorded at indicated times post cell injection using Xenogen IVIS System (Xenogen). Total photon flux at the chest regions and from the dissected lungs was analyzed.

ELT3 cells [2] = experiment: Anoikis assay of ELT3 cells on PolyHEMA (caspase-3, DNA fragmentation, Bim, regrowth); type: cell-based, rat
Protocol: as §1
ELT3 cells were cultured with or without 10 nM E2 in serum-free and phenol red-free medium supplemented with 10% charcoal-stripped FBS for 24 hours. […] Cell death as a function of DNA fragmentation was detected using Cell Death Detection ELISA kit (Roche Diagnostics).
(§3) The surviving cells in suspension were plated in triplicate in 24-well plates and allowed to grow adherently for 24 hours. ^3H-thymidine (1 μCi) was added to the media and the cells were incubated at 37° C. for 6 hours, washed with PBS, and lysed in 0.5 mL of 0.5 N NaOH plus 0.5% SDS. ^3H-thymidine incorporation was measured by scintillation counting.

C-Raf = experiment: Immunoblot of phosphorylated C-Raf/Raf-1 in ELT3 cells; type: cell-based, rat; details: E2 stimulation
Protocol: (§4) ELT-3 cells (Eker rat uterine leiomyoma-derived smooth muscle cells) were cultured in IIA complete medium (DMEM/F12 basal media including 15% FBS, 0.2 μM hydrocortisone, 10 μU/mL vasopressin, 1×FeSO4, 10 ng/mL EGF, 1×ITS, 0.01 nM triiolythryonine, 0.12% sodium bicarbonate, 1× cholesterol and 1× penicillin/streptomycin) supplemented with 15% FBS. Prior to the in vitro experiments, cells were maintained in media supplemented with 10%-charcoal-stripped FBS for three days and then serum starved for 24 hours in serum-free and phenol red-free medium. E2 (10 nM, Sigma, St. Louis, Mo.) or PD98059 (50 μM, Cell Signaling Technology, Danvers, Mass.) was added to the cells as indicated.
(§5) Cells were rinsed once in ice-cold PBS and lysed in PTY buffer (50 mM Hepes, pH 7.5, 50 mM NaCl, 5 mM EDTA, 50 mM NaF, 10 mM Na4P2O7, and 1% Triton 100) supplemented with phosphatase inhibitors. Lysates were resolved by SDS-PAGE electrophoresis and transferred onto Immobilon P membranes (Millipore). Cytoplasmic and nuclear fractions were separated using CellLytic Nuclear Extraction Kit (Sigma) before electrophoresis. […]

[3] = tested on: tuberin-deficient ELT3 cells; experiment: Subcutaneous ELT3 xenograft in CB17-scid mice: primary tumors and pulmonary metastases; type: in vivo
Protocol: (§6) All animal work was performed in accordance with a protocol approved by the FCCC Institutional Animal Care and Use Committee. Male CB-17 scid mice, six weeks of age, were purchased from Fox Chase Cancer Center. Female ovariectomized CB17-scid mice, six to eight weeks of age, were purchased from Taconic (Hudson, N.Y.). One week prior to cell injection, 17-beta estradiol or control-placebo pellets (2.5 mg, 90-day release) (Innovative Research America, Sarasota, Fla.) were implanted. For xenograft tumor establishment, subconfluent ELT3 cells were harvested, washed in PBS, and resuspended in 0.2 ml of serum-free medium. Two millions ELT3 cells were injected into both flanks of the mouse subcutaneously. For metastatic and circulating tumor cells assays, 2×10^5 ELT3 or ELT3-Luc cells were resuspended in 0.1 ml PBS and injected into the lateral tail vein of mice. Lung metastases were scored from 3-5 five-micron H&E stained sections of each lobe at 40× magnification by observers blinded to the experimental conditions.
CI-1040 (PD184352) was obtained from Pfizer (Ann Arbor, Mich.) and was prepared in a vehicle of 10% Cremophore EL (Sigma), 10% ethanol and 80% water. RAD001 was obtained from Novartis Pharma AG (Basel, Switzerland) and was diluted in double-distilled water. Drug were administered one day post cell inoculation at the following doses: RAD001 (4 mg/kg/day, gavage); CI-1040, (150 mg/kg/day gavage, twice a day)
Subcutaneous tumors were removed from animals upon sacrifice. Tumor weights were recorded, and tumor size was measured in two dimensions with calipers.
ELT3 cells were inoculated subcutaneously into the flanks of ovariectomized CB17-SCID mice, which were supplemented 1 week before with either placebo or E2 pellets (2.5 mg, 90-day release). Tumors arose in 100% of both estrogen and placebo-treated mice. […] The proliferative potential of ELT3 cells in vivo was examined using Ki-67 immunoreactivity.

p42/44 MAPK [4] = experiment: Phospho-p42/44 MAPK immunostaining of primary xenograft tumors; type: in vivo, mice; details: placebo 28%
Protocol: Sections were deparaffinized, incubated overnight with primary antibodies at 4° C. in a humidified chamber and then rinsed and incubated with biotinylated secondary antibodies for 30 minutes at room temperature. Slides were developed using the Broad Spectrum AEC Histostain-Plus (Invitrogen) or Histostain-Plus kit (Invitrogen), and they were counterstained with Gill's hematoxylin.
as §6

ELT3 cells [5] = experiment: Circulating and lung tumor cell DNA by rat-specific real-time PCR; type: in vivo, mice
Protocol: as §2
Mouse blood (0.5 mL) was collected at indicated times by intraocular bleed, and red blood cells were lysed before DNA extraction. At death, the lungs were dissected and stored at −80° C. for DNA extraction. Rat and mouse DNAs were quantified by using TaqMan-chemistry based real-time PCR assays. […] The primers amplify a LINE repeat element (AC087102). The assay for mouse is for the gene Anf. The sequences (all 5′ to 3′) for the primers and probes are:
PCR master mix from Eurogentec was used for PCR. Primers and probe concentrations were 500 and 100 nM, respectively. Cycling conditions were 95° C., 15 minutes followed by 40 (2-steps) cycles (95° C., 15 sec; 60° C., 60 sec). Reactions were run using an ABI 7900 HT instrument. Each sample was analyzed using two different amounts of input DNA. […] Bioluminescent Reporter Imaging

ribosomal protein S6 = experiment: Immunoblot of phosphorylated ribosomal protein S6 in ELT3 cells; type: cell-based, rat; details: E2 stimulation
Protocol: as §4, §5

ELT3 cells [6] = experiment: ELT3 cell proliferation in response to E2, 3H-thymidine incorporation; type: cell-based, rat; details: day 5, E2 treatment vs control
Protocol: as §4
as §3, with “counting. […]” for “counting.”

[7] = female mice, subset n=4 with primary tumors of similar size
[8] = RAD001 4 mg/kg/day by gavage, 5 days per week, in the presence of estrogen or placebo

With 17β-estriadiol [E2] the “time to induced phosphorylation of p42/44 MAPK” value (p42/44 MAPK [1]; 10 nM E2) was at most 15 min, the “time to nuclear translocation of phospho-MAPK” value (p42/44 MAPK [1]; nuclear and cytoplasmic fractions) was at most 5 min and the “bioluminescence in chest regions, higher than placebo” value (ELT3-luciferase cells; 3 h post-cell injection) was 2 fold. The “bioluminescence in chest regions, higher than placebo” value (ELT3-luciferase cells; 24 h post-cell injection) was 5 fold, the DNA fragmentation (ELT3 cells [2]; 10 nM E2, PolyHEMA, at 1 and 24 h, ELISA) was “significantly reduced” and the caspase-3 cleavage (ELT3 cells [2]; 10 nM E2, PolyHEMA, at 6, 16 and 24 h) was “reduced”. The “3H-thymidine incorporation after replating” value (ELT3 cells [2]; 24 h on PolyHEMA, 24 h after replating on adherent plates) was “significant increase”, the “accumulation of Bim” value (ELT3 cells [2]; after 1 h in detachment conditions) was “decreased” and the “phosphorylation of S6K and S6” value (ELT3 cells [2]; detachment conditions, E2 stimulation) was “did not change”. For the same compound, the “time to increased phosphorylation of C-Raf at Ser-338” value (C-Raf) was at most 2 min, the “average number of pulmonary metastases, size-matched subset” value [3, 7] was 6 metastases/mouse and the “mice that developed pulmonary metastases, size-matched subset” value [3, 7] was “Three”. For the same compound, the “primary tumor size, size-matched subset” value [3, 7] was 198±20 mm^2, the “tumor size relative to placebo-treated animals” value ([3]; male mice, 8 weeks post-cell inoculation) was 2.9 fold and the “average number of pulmonary metastases” value ([3]; male mice, 8 weeks post-inoculation) was 14 metastases/mouse. The “mice with pulmonary metastases” value ([3]; male mice, 8 weeks post-inoculation, 10 of 10) was 100%, the “mice in which tumors arose” value ([3]; ovariectomized female CB17-SCID mice, E2 pellets 2.5 mg 90-day release) was 100% and the “average number of pulmonary metastases” value ([3]; ovariectomized female mice) was 15 metastases/mouse. The “mice with pulmonary metastases” value ([3]; ovariectomized female mice, 5 of 9) was 56%, the mean tumor area ([3]; ovariectomized female mice, post-inoculation week 8) was 287±43 mm^2 and the “number of Ki-67 positive cells in tumors, higher than placebo” value ([3]; xenograft tumors, female mice, vs placebo-treated tumors) was 17%. For the same compound, the “percentage of cells with primarily nuclear phospho-MAPK” value (p42/44 MAPK [4]) was 65%, the “increase in circulating cells” value (ELT3 cells [5]; 6 h after i.v. injection of 2×10^5 ELT3 cells, vs placebo) was 2.5 fold and the “increase in lung seeding of ELT3 cells” value (ELT3 cells [5]; lungs 24 h after i.v. injection, vs placebo) was 2 fold. The “amount of circulating tumor cell DNA vs placebo” value (ELT3 cells [5]; xenograft mice, 7 weeks post-cell inoculation, tumors of similar size) was “striking increase”, the “mTOR activation as measured by ribosomal protein S6 phosphorylation” value (ribosomal protein S6) was “does not affect” and the “increase in 3H-thymidine incorporation” value (ELT3 cells [6]) was 2.8 fold.

With `O=C(NOCC1CC1)c1ccc(F)c(F)c1Nc1ccc(I)cc1Cl` [CI-1040, 2-(2-chloro-4-iodo-phenylamino)-N-cyclopropylmethoxy-3,4-difluoro-benzamide] the “decrease of bioluminescence in chest regions, E2 plus CI-1040 vs E2” value (ELT3-luciferase cells; 5 h post-cell injection) was 55%, the “reduction of bioluminescent signals in ex vivo lungs, E2 plus CI-1040 vs E2” value (ELT3-luciferase cells; 60 h post-cell injection) was 96% and the tumor formation ([3]; CI-1040 150 mg/kg/day by gavage, twice a day, not statistically significant) was “delayed”. For the same compound, the “reduction of the size of primary tumors” value ([3]; E2 animals, CI-1040 150 mg/kg/day by gavage, not statistically significant) was 25%, the lung metastases ([3]; mice treated with E2 plus CI-1040 150 mg/kg/day by gavage, 150 mg/kg/day) was “no lung metastases were detected; also recorded: completely blocked” and the “reduction of levels of circulating ELT3 cells in the blood” value (ELT3 cells [5]; E2-treated xenograft animals, CI-1040 150 mg/kg/day by gavage) was 84%.

With `COc1cccc(-c2cc(=O)c3ccccc3o2)c1N` [PD98059] the “E2-induced phosphorylation of p42/44 MAPK” value (p42/44 MAPK [1]; pretreatment with PD98059 (50 μM)) was “blocked”, the “phosphorylation of S6K” value (ELT3 cells [2]; 1 h after detachment) was “decreased” and the “E2-enhanced survival (3H-thymidine incorporation after replating)” value (ELT3 cells [2]; 24 h on PolyHEMA then replated, PD98059 treatment) was “blocked”. The “estrogen's inhibition of Bim accumulation and caspase-3 cleavage” value (ELT3 cells [2]; preincubation, after 4 h in detachment conditions) was “partially blocked”.

`CO[C@H]1C[C@@H]2CC[C@@H](C)[C@@](O)(O2)C(=O)C(=O)N2CCCC[C@H]2C(=O)O[C@H]([C@H](C)C[C@@H]2CC[C@@H](OCCO)[C@H](OC)C2)CC(=O)[C@H](C)/C=C(\C)[C@@H](O)[C@@H](OC)C(=O)[C@H](C)C[C@H](C)/C=C/C=C/C=C/1C` [RAD001] was tested, and the lung metastasis [3, 8] was “completely blocked” and the primary tumor development [3, 8] was “completely blocked”.
